Source: the supplement of paper PMC10307832

Key:
Assay in all cases: relative viability (nuclei count vs DMSO), 5 days (fraction); higher = more cells survive
TGX 221 + Trametinib = compound: CC1=CN2C(=O)C=C(N=C2C(=C1)C(C)NC3=CC=CC=C3)N4CCOCC4 [TGX 221] + CC(=O)Nc1cccc(-n2c(=O)n(C3CC3)c(=O)c3c(Nc4ccc(I)cc4F)n(C)c(=O)c(C)c32)c1 [Trametinib] (partner 0.02 µM)
How it was run: (§1)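 The day after seeding in 1536-well plates, lung cancer cell lines were treated by pin tool with a single drug, or with a fixed anchor-drug dose together with five library-drug doses (not always all listed) in √10 steps. After 5 days, a combined fix-and-stain solution (final 0.05% Triton X-100, 1% formaldehyde, 1 ug/ml Hoechst) was added. Nuclei counted on 4× images gave relative viability as treated counts over vehicle counts, reported as the median of duplicate plates.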

TGX 221 + Pemetrexed = compound: CC1=CN2C(=O)C=C(N=C2C(=C1)C(C)NC3=CC=CC=C3)N4CCOCC4 [TGX 221] + Nc1nc2[nH]cc(CCc3ccc(C(=O)N[C@@H](CCC(=O)O)C(=O)O)cc3)c2c(=O)[nH]1 [Pemetrexed] (partner 0.2 µM)
How it was run: as §1

Ricolinostat + Dasatinib = compound: O=C(CCCCCCNC(=O)c1cnc(N(c2ccccc2)c2ccccc2)nc1)NO [Ricolinostat] + Cc1nc(Nc2ncc(C(=O)Nc3c(C)cccc3Cl)s2)cc(N2CCN(CCO)CC2)n1 [Dasatinib] (partner 0.075 µM)
How it was run: as §1

[1] = compound: C1=CC=C(C(=C1)C2=CC=C(C=C2)C3=CSC4=C3C(=C(C(=O)N4)C#N)O)O + Cc1cc(Nc2cc(N3CCN(C)CC3)nc(Sc3ccc(NC(=O)C4CC4)cc3)n2)n[nH]1 [Tozasertib] (partner 0.1 µM)
How it was run: as §1

Cell Line	relative viability (TGX 221 + Trametinib; first compound 0.08 µM)	relative viability (TGX 221 + Trametinib; first compound 0.253 µM)	relative viability (TGX 221 + Trametinib; first compound 0.8 µM)	relative viability (TGX 221 + Trametinib; first compound 2.53 µM)	relative viability (TGX 221 + Trametinib; first compound 8 µM)	relative viability (TGX 221 + Pemetrexed; first compound 0.08 µM)	relative viability (TGX 221 + Pemetrexed; first compound 0.253 µM)	relative viability (TGX 221 + Pemetrexed; first compound 0.8 µM)	relative viability (TGX 221 + Pemetrexed; first compound 2.53 µM)	relative viability (TGX 221 + Pemetrexed; first compound 8 µM)	relative viability (Ricolinostat + Dasatinib; first compound 0.08 µM)	relative viability (Ricolinostat + Dasatinib; first compound 0.253 µM)	relative viability (Ricolinostat + Dasatinib; first compound 0.8 µM)	relative viability (Ricolinostat + Dasatinib; first compound 2.53 µM)	relative viability ([1]; first compound 0.08 µM)	relative viability ([1]; first compound 0.253 µM)	relative viability ([1]; first compound 0.8 µM)	relative viability ([1]; first compound 2.53 µM)	relative viability ([1]; first compound 8 µM)
201T	0.704	0.728	0.703	0.703	0.697	0.324	0.373	0.318	0.351	0.374	0.471	0.571	0.603	0.498	0.743	1.03	1.01	1.05	0.926
A-427	0.686	0.747	0.771	0.627	0.7	0.992	0.987	0.963	0.989	0.953	–	0.621	0.583	0.471	0.188	0.209	0.248	0.224	0.215
ABC-1	–	–	–	–	–	–	–	–	–	–	0.556	0.632	0.563	0.489	0.214	0.204	0.205	0.265	0.186
BEN	1.03	0.969	0.93	0.998	0.891	0.728	0.715	0.727	0.645	0.775	0.269	0.322	0.279	0.213	0.477	0.507	0.747	0.75	0.541
CAL-12T	0.272	0.299	0.316	0.33	0.325	1.12	0.976	1.21	1.25	1.17	0.422	0.417	0.48	0.664	0.272	0.334	0.305	0.337	0.282
COR-L23	0.507	0.592	0.573	0.577	0.523	0.22	0.198	0.186	0.218	0.189	0.373	0.477	0.471	0.242	0.195	0.213	0.199	0.174	0.153
COR-L 105	0.501	0.431	0.482	0.43	0.419	1.1	1.08	0.857	1	0.81	–	0.368	0.397	0.401	0.386	0.341	0.358	0.383	0.379
ChaGo-K-1	0.952	0.871	0.857	0.922	0.843	0.264	0.259	0.236	0.231	0.254	0.579	0.49	0.584	0.532	0.242	0.238	0.239	0.232	0.208
EKVX	0.3	0.322	0.291	0.273	0.304	0.404	0.356	0.34	0.375	0.395	0.471	0.658	0.577	0.606	0.519	0.484	0.349	0.546	0.336
EMC-BAC-2	0.826	1.02	0.897	0.864	0.792	0.468	0.43	0.428	0.464	0.463	0.316	0.291	0.27	0.242	0.297	0.303	0.254	0.327	0.305
EPLC-272H	0.246	0.269	0.271	0.242	0.254	0.392	0.279	0.353	0.295	0.303	0.308	0.387	0.336	0.212	0.223	0.194	0.227	0.22	0.247
H3255	0.583	0.537	0.538	0.576	0.529	0.54	0.71	0.487	0.562	0.539	0.347	0.308	0.318	0.308	1.04	0.727	0.213	0.868	0.559
HARA	0.722	0.655	0.715	0.614	0.429	0.216	0.234	0.258	0.3	0.221	0.271	0.224	0.217	0.192	0.117	0.106	0.49	0.104	0.101
HCC-15	0.373	0.335	0.368	0.376	0.337	0.212	0.237	0.203	0.209	0.203	0.537	0.665	0.642	0.653	0.474	0.579	0.371	0.554	0.371
HCC-44	1.07	1.06	1.14	1.13	0.945	0.681	0.646	0.655	0.643	0.668	–	–	–	–	–	1.36	0.876	1.03	0.744
HCC-78	0.735	0.586	0.757	0.551	0.469	0.827	0.928	0.771	0.877	0.921	–	0.438	0.356	0.281	0.465	0.41	0.611	0.503	0.375
HCC-366	0.288	0.325	0.311	0.235	0.239	0.158	0.146	0.184	0.165	0.16	0.487	0.613	0.576	0.451	0.139	0.137	0.14	0.124	0.0974
HCC-827	0.556	0.473	0.478	0.44	0.493	0.264	0.294	0.272	0.248	0.249	0.24	0.363	0.287	0.361	0.477	0.455	0.402	0.507	0.399

Cell Line	relative viability (TGX 221 + Trametinib; first compound 0.08 µM)	relative viability (TGX 221 + Trametinib; first compound 0.253 µM)	relative viability (TGX 221 + Trametinib; first compound 0.8 µM)	relative viability (TGX 221 + Trametinib; first compound 2.53 µM)	relative viability (TGX 221 + Trametinib; first compound 8 µM)	relative viability (TGX 221 + Pemetrexed; first compound 0.08 µM)	relative viability (TGX 221 + Pemetrexed; first compound 0.253 µM)	relative viability (TGX 221 + Pemetrexed; first compound 0.8 µM)	relative viability (TGX 221 + Pemetrexed; first compound 2.53 µM)	relative viability (TGX 221 + Pemetrexed; first compound 8 µM)	relative viability (Ricolinostat + Dasatinib; first compound 0.08 µM)	relative viability (Ricolinostat + Dasatinib; first compound 0.253 µM)	relative viability (Ricolinostat + Dasatinib; first compound 0.8 µM)	relative viability (Ricolinostat + Dasatinib; first compound 2.53 µM)	relative viability ([1]; first compound 0.08 µM)	relative viability ([1]; first compound 0.253 µM)	relative viability ([1]; first compound 0.8 µM)	relative viability ([1]; first compound 2.53 µM)	relative viability ([1]; first compound 8 µM)
HOP-62	0.386	0.351	0.338	0.252	0.298	0.315	0.279	0.289	0.438	0.376	0.533	0.669	0.655	0.423	0.363	0.363	0.337	0.335	0.335
LC-2-ad	0.846	0.906	0.927	0.885	0.858	0.272	0.282	0.287	0.259	0.265	0.41	0.566	0.482	0.455	0.502	0.539	0.487	0.429	0.425
LCLC-97TM1	0.178	0.172	0.22	0.187	0.185	0.167	0.169	0.173	0.197	0.179	0.727	0.853	0.878	0.34	0.22	0.187	0.164	0.222	0.187
LCLC-103H	0.65	0.639	0.626	0.683	0.651	0.441	0.481	0.451	0.455	0.5	0.437	0.55	0.423	0.464	0.481	0.478	0.592	0.503	0.457
LK-2	0.725	0.716	0.847	0.823	0.749	0.232	0.279	0.219	0.275	0.247	0.34	0.271	0.444	0.35	–	0.152	0.149	0.198	0.198
LOU-NH91	0.818	0.741	0.756	0.774	0.709	0.446	0.409	0.341	0.446	0.367	0.453	0.543	0.558	0.533	0.669	0.715	0.612	0.637	0.645
LU99A	0.507	0.479	0.557	0.505	0.493	0.198	0.173	0.173	0.232	0.133	0.461	0.583	0.465	0.512	0.274	0.256	0.275	0.298	0.279
LXF-289	0.67	0.757	0.708	0.674	0.744	0.926	0.918	0.897	0.937	0.961	0.193	0.274	0.272	0.306	0.179	0.173	0.201	0.179	0.191
NCI-H23	0.279	0.329	0.338	0.403	0.328	0.599	0.571	0.678	0.526	0.578	0.667	0.786	0.698	0.47	0.395	0.32	0.373	0.449	0.316
NCI-H322M	0.47	0.488	0.508	0.504	0.5	0.58	0.619	0.604	0.579	0.565	–	0.275	0.26	0.255	0.487	0.426	0.487	0.497	0.444
NCI-H358	0.13	0.127	0.153	0.132	0.132	0.189	0.167	0.168	0.166	0.174	0.164	0.168	0.146	0.187	0.107	0.112	0.104	0.0911	0.114
NCI-H441	0.416	0.473	0.45	0.371	0.354	0.238	0.224	0.231	0.28	0.266	–	0.586	0.601	0.538	0.801	0.855	0.815	0.61	0.768
NCI-H460	0.104	0.121	0.202	0.171	0.0976	0.0673	0.0618	0.0662	0.0757	0.0781	0.319	0.459	0.444	0.42	0.395	0.429	0.345	0.461	0.296
NCI-H520	0.521	0.591	0.744	0.597	0.505	0.592	0.459	0.476	0.457	0.358	–	0.313	0.211	0.231	0.409	0.417	0.432	0.367	0.441
NCI-H727	0.476	0.362	0.409	0.392	0.366	–	–	–	–	–	0.352	0.479	0.47	0.452	0.537	0.604	0.762	0.702	0.53
NCI-H1563	–	–	–	–	–	0.646	0.705	0.534	0.726	0.733	0.472	0.461	0.441	0.494	–	–	–	–	–
NCI-H1623	–	–	–	–	–	–	–	–	–	–	0.484	0.612	0.528	0.475	0.408	0.53	0.397	0.457	0.436
NCI-H1648	–	0.403	0.569	0.435	0.471	–	0.883	0.811	0.722	0.674	–	–	–	–	0.503	–	0.413	0.6	0.392
